Measured values reported in ChEMBL document CHEMBL4350979, “Dehydrodieugenol B derivatives as antiparasitic agents: Synthesis and biological activity against Trypanosoma cruzi” (Eur J Med Chem, 2019).
The source made the active and inactive calls. No cut-off for these calls is given here. Square brackets hold non-standard residues; d marks the D form. Peptide text beside a SMILES is read from it. * marks the point of attachment. NHCH2CH2OH = OCCN*; For = O=C*

Tests used:
Trypanosoma cruzi [1] = assay: Induction of mitochondrial membrane depolarization in Trypanosoma cruzi strain Y trypomastigotes assessed as reduction in mitochondrial membrane potential at 50 uM measured after 120 mins by JC-1 probe based flow cytometry; format: functional, organism-based
Trypanosoma cruzi [2] = assay: Antitrypanosomal activity against Trypanosoma cruzi strain Y trypomastigotes maintained in Rhesus monkey […] cells assessed as decrease in trypomastigotes cell viability incubated for 24 hrs by resazurin dye based colorimetric assay; format: functional, organism-based
Trypanosoma cruzi [3] = assay: Antitrypanosomal activity against Trypanosoma cruzi amastigotes infected in BALB/c mouse peritoneal macrophages assessed as decrease in parasitic load with in the cell incubated for 48 hrs by Giemsa staining based light microscopy; format: functional, organism-based
[4] = Cytotoxicity against mouse NCTC-929 cells assessed as reduction in cell viability incubated for 48 hrs by MTT assay; format: cell-based; settings: NCTC-929 (L929) cells
[5] = Selectivity index, ratio of CC50 for mouse NCTC-929 cells to IC50 for Trypanosoma cruzi amastigotes infected in BA;B/c mouse peritoneal macrophages; format: toxicity; settings: read-out: Ratio CC50/IC50
Trypanosoma cruzi [6] = assay: Induction of plasma membrane electric potential depolarization in Trypanosoma cruzi strain Y trypomastigotes at 0.5 mg/ml measured after 60 mins by DiSBAC2(3) dye based flow cytometry; format: functional

Row | SMILES | inhibition (Trypanosoma cruzi [1]) | IC50 (Trypanosoma cruzi [2]) [µM] | IC50 (Trypanosoma cruzi [3]) [µM] | CC50 at 48 h [4] [µM] | selectivity ratio [5] | Activity (Trypanosoma cruzi [6]) [%]
1 | N#CC(C#N)=NNc1cccc(Cl)c1 | Active |  |  |  |  | 
2 | O=C(Cn1ccnc1[N+](=O)[O-])NCc1ccccc1 [BENZNIDAZOLE] |  | 17.7 | 5 | 191 | 38.1 | 
3 | COc1cc(CC(C)O)ccc1Oc1cc(CC(C)O)cc(OC)c1OC (stereo unspecified) |  | > 100 | > 30 | > 200 |  | 
4 | CCCc1ccc(Oc2cc(CCC)cc(OC)c2OC)c(OC)c1 |  | > 100 | 13.3 | > 200 | > 15.4 | 
5 | CCCOc1c(OC)cc(CCC)cc1Oc1ccc(CCC)cc1OC |  | > 100 | > 30 | > 200 |  | 
6 | CC(C)C[C@@H](NC(=O)[C@H](C)NC(=O)CNC(=O)[C@@H](NC=O)C(C)C)C(=O)N[C@@H](C)C(=O)N[C@@H](C(=O)N[C@H](C(=O)N[C@@H](C(=O)N[C@@H](Cc1c[nH]c2ccccc12)C(=O)N[C@H](CC(C)C)C(=O)N[C@@H](Cc1c[nH]c2ccccc12)C(=O)N[C@H](CC(C)C)C(=O)N[C@@H](Cc1c[nH]c2ccccc12)C(=O)N[C@H](CC(C)C)C(=O)N[C@@H](Cc1c[nH]c2ccccc12)C(=O)NCCO)C(C)C)C(C)C)C(C)C [GRAMICIDIN D] (For-VGA[dL]A[dV]V[dV]W[dL]W[dL]W[dL]W-NHCH2CH2OH) |  |  |  |  |  | 100
